Reference: article PMC6211257, “Synthesis and cytotoxic activities of novel copper and silver complexes of 1,3-diaryltriazene-substituted sulfonamides” (Journal of Enzyme Inhibition and Medicinal Chemistry, 2018)
Several values for one entry are separate records, joined by “and”; a condition that tells them apart may be missing. Equal values may be shown once.

tested on: normal prostate epithelium (PNT-1A) cells; test: MTT cytotoxicity assay, PNT-1A; assay type: cell-based, human; settings: normal cell, 48 h, means of three independent experiments, read-out: IC50 PNT-1A
Text: (§1) The cells studied were obtained from the American Type Culture Collection (ATCC, Manassas, VA), and included human colorectal adenocarcinoma (DLD-1), cervix carcinoma (HeLa), breast adenocarcinoma (MDA-MB-231), colon adenocarcinoma (HT-29), endometrial adenocarcinoma (ECC-1), prostate cancer (DU-145 and PC-3), normal embryonic kidney (HEK-293), normal prostate epithelium (PNT-1A), and normal retinal pigment epithelium (ARPE-19) cells. As recommended by ATCC, cells were subjected to propagation using DMEM-F12 and RPMI-1640 media, with supplements 10% fetal bovine serum, L-glutamine (2 mM), penicillin (100 U/mL) and streptomycin ([…]) in a humidified atmosphere (5% CO2) at 37 °C. When the cultures reached 70–80% confluence, the cells were harvested using 0.25% trypsin (Sigma).
(§2) Cytotoxic activities were based on the reduction of (3–(4,5-dimethylthiazol-2-yl)-2,5-diphenyltetrazolium bromide) (MTT) by mitochondrial dehydrogenase of viable cells to give a blue formazan product which can be measured spectrophotometrically by UV–Vis measurements. MTT colorimetric assays were performed using 96 well plates. The cells were seeded in a 96 well plate at concentration 5.0 × 10^4 cells/well and incubated at 37 °C for 24 h. After treatment with various concentrations of the test compound (1, 5, 10, 25, 50, 100 and 200 μM), the cells were incubated for an additional 48 h at 37 °C. After incubation, the medium was removed, and the cells in each well were incubated with 100 μL MTT solution (5 mg/mL) for 4 h at 37 °C. MTT solutions were then discarded, and 100 μL DMSO were added to dissolve insoluble formazan crystals. Optical densities were measured at 570 nm (Varioskan Flash Multimode Reader, Thermo, Waltham, MA). Data were obtained from triplicate wells. Cytotoxic effects were determined in reference to negative controls (vehicle treated cells). Cytotoxicity was expressed as the mean percentage increase relative to the unexposed control (mean ± SD). All statistical analyses were performed using SPSS package program for Windows (Version 20, Chicago, IL). Control values were set to 0% cytotoxicity. Cytotoxicity data, where appropriate, were fitted to sigmoidal curves and a four-parameter logistic model was used to calculate the IC50 values, the concentration of material causing 50% inhibition, compared to the untreated controls. 5-Fluorouracil (5-FU) was also used as a control agent[21]^,[22].

SMILES	IC50 [µM]
CC(=O)[O][Cu-]1([O]C(C)=O)[N](c2cccc(S(N)(=O)=O)c2)N=[N+]1c1cc(C)cc(C)c1 [Compound L5-Cu]	46.4 ± 4.6
COc1ccc([N+]2=N[N](c3cccc(S(N)(=O)=O)c3)[Cu-]2([O]C(C)=O)[O]C(C)=O)cc1OC [Compound L4-Cu]	125 ± 14.8
CC(=O)[O][Cu-]1([O]C(C)=O)[N](c2cccc(S(N)(=O)=O)c2)N=[N+]1c1ccc(F)cc1 [Compound L1-Cu]	76.5 ± 8.5
COc1ccc(N=N[N]([Ag][O]C(C)=O)c2cccc(S(N)(=O)=O)c2)cc1OC [Compound L4-Ag]	139 ± 16.5

tested on: colon adenocarcinoma (HT-29) cells; test: MTT cytotoxicity assay, HT-29; assay type: cell-based, human; settings: cancer cell, 48 h, means of three independent experiments
Text: as §1, §2

SMILES	IC50 [µM]
CC(=O)[O][Cu-]1([O]C(C)=O)[N](c2cccc(S(N)(=O)=O)c2)N=[N+]1c1cc(C)cc(C)c1 [Compound L5-Cu]	84.4 ± 8.4
COc1ccc([N+]2=N[N](c3cccc(S(N)(=O)=O)c3)[Cu-]2([O]C(C)=O)[O]C(C)=O)cc1OC [Compound L4-Cu]	199 ± 22.5
CC(=O)[O][Cu-]1([O]C(C)=O)[N](c2cccc(S(N)(=O)=O)c2)N=[N+]1c1ccc(F)cc1 [Compound L1-Cu]	199 ± 24.3
COc1ccc(N=N[N]([Ag][O]C(C)=O)c2cccc(S(N)(=O)=O)c2)cc1OC [Compound L4-Ag]	241 ± 28.5

tested on: prostate cancer (DU-145) cells; test: MTT cytotoxicity assay, DU-145; assay type: cell-based, human; settings: cancer cell, MTT, 48 h, means of three independent experiments; read-out: IC50 DU-145
Text: as §1, §2

SMILES	IC50 [µM]
CC(=O)[O][Cu-]1([O]C(C)=O)[N](c2cccc(S(N)(=O)=O)c2)N=[N+]1c1cc(C)cc(C)c1 [Compound L5-Cu]	32.4 ± 3.2
COc1ccc([N+]2=N[N](c3cccc(S(N)(=O)=O)c3)[Cu-]2([O]C(C)=O)[O]C(C)=O)cc1OC [Compound L4-Cu]	160 ± 18
CC(=O)[O][Cu-]1([O]C(C)=O)[N](c2cccc(S(N)(=O)=O)c2)N=[N+]1c1ccc(F)cc1 [Compound L1-Cu]	105 ± 13.5
COc1ccc(N=N[N]([Ag][O]C(C)=O)c2cccc(S(N)(=O)=O)c2)cc1OC [Compound L4-Ag]	237 ± 28.5

tested on: endometrial adenocarcinoma (ECC-1) cells; test: MTT cytotoxicity assay, ECC-1; assay type: cell-based, human; settings: cancer cell, 48 h, means of three independent experiments
Text: as §1, §2

SMILES	IC50 [µM]
CC(=O)[O][Cu-]1([O]C(C)=O)[N](c2cccc(S(N)(=O)=O)c2)N=[N+]1c1cc(C)cc(C)c1 [Compound L5-Cu]	97.6 ± 9.7
COc1ccc([N+]2=N[N](c3cccc(S(N)(=O)=O)c3)[Cu-]2([O]C(C)=O)[O]C(C)=O)cc1OC [Compound L4-Cu]	308 ± 34.2
CC(=O)[O][Cu-]1([O]C(C)=O)[N](c2cccc(S(N)(=O)=O)c2)N=[N+]1c1ccc(F)cc1 [Compound L1-Cu]	26.2 ± 2.6
COc1ccc(N=N[N]([Ag][O]C(C)=O)c2cccc(S(N)(=O)=O)c2)cc1OC [Compound L4-Ag]	104 ± 10.3

tested on: human colorectal adenocarcinoma (DLD-1) cells; test: MTT cytotoxicity assay, DLD-1; assay type: cell-based; settings: cancer cell, 48 h, means of three independent experiments
Text: as §1, §2

SMILES	IC50 [µM]
CC(=O)[O][Cu-]1([O]C(C)=O)[N](c2cccc(S(N)(=O)=O)c2)N=[N+]1c1cc(C)cc(C)c1 [Compound L5-Cu]	58.8 ± 3.9
COc1ccc([N+]2=N[N](c3cccc(S(N)(=O)=O)c3)[Cu-]2([O]C(C)=O)[O]C(C)=O)cc1OC [Compound L4-Cu]	58.4 ± 5.8
CC(=O)[O][Cu-]1([O]C(C)=O)[N](c2cccc(S(N)(=O)=O)c2)N=[N+]1c1ccc(F)cc1 [Compound L1-Cu]	47.1 ± 4.7
COc1ccc(N=N[N]([Ag][O]C(C)=O)c2cccc(S(N)(=O)=O)c2)cc1OC [Compound L4-Ag]	173 ± 10.3

tested on: prostate cancer (PC-3) cells; test: MTT cytotoxicity assay, PC-3; assay type: cell-based, human; settings: cancer cell, 48 h, means of three independent experiments
Text: as §1, §2

SMILES	IC50 [µM]
CC(=O)[O][Cu-]1([O]C(C)=O)[N](c2cccc(S(N)(=O)=O)c2)N=[N+]1c1cc(C)cc(C)c1 [Compound L5-Cu]	79.2 ± 8.5
COc1ccc([N+]2=N[N](c3cccc(S(N)(=O)=O)c3)[Cu-]2([O]C(C)=O)[O]C(C)=O)cc1OC [Compound L4-Cu]	297 ± 32.4
CC(=O)[O][Cu-]1([O]C(C)=O)[N](c2cccc(S(N)(=O)=O)c2)N=[N+]1c1ccc(F)cc1 [Compound L1-Cu]	102 ± 10.2
COc1ccc(N=N[N]([Ag][O]C(C)=O)c2cccc(S(N)(=O)=O)c2)cc1OC [Compound L4-Ag]	137 ± 15.8

tested on: normal embryonic kidney (HEK-293) cells; test: MTT cytotoxicity assay, HEK-293; assay type: cell-based, human; settings: normal cell, 48 h, means of three independent experiments
Text: as §1, §2

SMILES	IC50 [µM]
CC(=O)[O][Cu-]1([O]C(C)=O)[N](c2cccc(S(N)(=O)=O)c2)N=[N+]1c1cc(C)cc(C)c1 [Compound L5-Cu]	36.3 ± 3.6
COc1ccc([N+]2=N[N](c3cccc(S(N)(=O)=O)c3)[Cu-]2([O]C(C)=O)[O]C(C)=O)cc1OC [Compound L4-Cu]	197 ± 23.5
CC(=O)[O][Cu-]1([O]C(C)=O)[N](c2cccc(S(N)(=O)=O)c2)N=[N+]1c1ccc(F)cc1 [Compound L1-Cu]	68.8 ± 8.7
COc1ccc(N=N[N]([Ag][O]C(C)=O)c2cccc(S(N)(=O)=O)c2)cc1OC [Compound L4-Ag]	5.5 ± 0.6

tested on: cervix carcinoma (HeLa) cells; test: MTT cytotoxicity assay, HeLa; assay type: cell-based, human; settings: cancer cell, MTT, 48 h, means of three independent experiments
Text: as §1, §2

SMILES	IC50
CC(=O)[O][Cu-]1([O]C(C)=O)[N](c2cccc(S(N)(=O)=O)c2)N=[N+]1c1cc(C)cc(C)c1 [Compound L5-Cu]	15.2 ± 1 µM
COc1ccc([N+]2=N[N](c3cccc(S(N)(=O)=O)c3)[Cu-]2([O]C(C)=O)[O]C(C)=O)cc1OC [Compound L4-Cu]	116 ± 9.2 µM
CC(=O)[O][Cu-]1([O]C(C)=O)[N](c2cccc(S(N)(=O)=O)c2)N=[N+]1c1ccc(F)cc1 [Compound L1-Cu]	5.02 µM and 5 µM
COc1ccc(N=N[N]([Ag][O]C(C)=O)c2cccc(S(N)(=O)=O)c2)cc1OC [Compound L4-Ag]	139 ± 28 µM

tested on: breast adenocarcinoma (MDA-MB-231) cells; test: MTT cytotoxicity assay, MDA-MB-231; assay type: cell-based, human; settings: cancer cell, 48 h, means of three independent experiments
Text: as §1, §2

SMILES	IC50 [µM]
CC(=O)[O][Cu-]1([O]C(C)=O)[N](c2cccc(S(N)(=O)=O)c2)N=[N+]1c1cc(C)cc(C)c1 [Compound L5-Cu]	26 ± 2.5
COc1ccc([N+]2=N[N](c3cccc(S(N)(=O)=O)c3)[Cu-]2([O]C(C)=O)[O]C(C)=O)cc1OC [Compound L4-Cu]	206 ± 25.1
CC(=O)[O][Cu-]1([O]C(C)=O)[N](c2cccc(S(N)(=O)=O)c2)N=[N+]1c1ccc(F)cc1 [Compound L1-Cu]	117 ± 14.2
COc1ccc(N=N[N]([Ag][O]C(C)=O)c2cccc(S(N)(=O)=O)c2)cc1OC [Compound L4-Ag]	> 300

tested on: normal retinal pigment epithelium (ARPE-19) cells; test: MTT cytotoxicity assay, ARPE-19; assay type: cell-based, human; settings: normal cell, 48 h, means of three independent experiments
Text: as §1, §2

SMILES	IC50 [µM]
CC(=O)[O][Cu-]1([O]C(C)=O)[N](c2cccc(S(N)(=O)=O)c2)N=[N+]1c1cc(C)cc(C)c1 [Compound L5-Cu]	84.3 ± 8.4
COc1ccc([N+]2=N[N](c3cccc(S(N)(=O)=O)c3)[Cu-]2([O]C(C)=O)[O]C(C)=O)cc1OC [Compound L4-Cu]	105 ± 13.5
CC(=O)[O][Cu-]1([O]C(C)=O)[N](c2cccc(S(N)(=O)=O)c2)N=[N+]1c1ccc(F)cc1 [Compound L1-Cu]	119 ± 13.5
COc1ccc(N=N[N]([Ag][O]C(C)=O)c2cccc(S(N)(=O)=O)c2)cc1OC [Compound L4-Ag]	285 ± 30.5
